Entries after “also recorded” stand apart in the source; their conditions may differ.
Columns and labels:
HIV-1 protease [1] = target: T1, HIV-1 protease (Human immunodeficiency virus type 1 group M subtype B, UniProt P12497); format: biochemical; settings: recombinant Gag, 50 μg/mL
[2] = tested on: HIV-1 NL4-3 SP1 point deletion mutants; assay: CA-SP1 processing of NL4-3 SP1 point deletion mutants in transfected HeLa cells (Western blot); format: cell-based
Experimental: To characterize the effect of deletion or substitution on viral particle production and Gag polyprotein processing, wild-type HIV-1 NL4-3 or SIVmac239 and respective mutant proviral DNAs were transfected into HeLa cells by employing FuGENE 6 transfection reagent (Roche). Briefly, cells were seeded into a 6-well plate (Corning) at a concentration of 0.5×10^5 per well the day before transfection to reach 60 to 80% confluence on the day of transfection. For each transfection, 3 μl of FuGENE 6 was diluted into 100 μl of serum-free DMEM followed by the addition of 1 μg of DNA. After gently mixing, the mixture of DNA-lipid complexes was gently added drop wise into the cells containing 2 ml of complete DMEM medium. Twenty-four hours post-transfection, medium containing DNA-FuGENE 6 complexes was removed, 2 ml of fresh DMEM was added into the transfected cells. […] The level of viral particle production for wild type NL4-3 and point deletion mutants was determined by p24 antigen capture ELISA (ZeptoMetrix, Buffalo, N.Y.). […]
Sensitivity to DSB was determined in experiments that characterized the effect of DSB on a late step in Gag processing, CA-SP1 cleavage.
Specifically, these assays measured the ability of DSB to disrupt CA-SP1 processing.

[3] = tested on: DSB-resistant HIV-1 viruses; assay: Western blot of CA-SP1 cleavage in drug-resistant viruses; format: cell-based; settings: drug-resistant viruses in the presence of DSB
Experimental: To determine if the resistant viruses were able to escape the CA-SP1 cleavage defect caused by DSB in wild-type virus, stocks of each virus grown in either the presence or absence of drug were analyzed by Western blot. Virus was pelleted through a 20% sucrose cushion from filtered culture supernatants that were collected 60 hr post-infection and 18 hr after the cells had been washed and fresh drug added. The viruses were lysed, and the amount of each virus was normalized by quantitating p24 levels in each sample.

[4] = tested on: HIV-1 isolates selected for resistance to DSB; assay: Virus replication assay in H9 cells (p24 ELISA), DSB-resistant and parental viruses; format: cell-based
Experimental: Virus stocks derived as described above were further analyzed both phenotypically and genotypically to characterize the nature of their drug-resistance. The resistance of the viruses to 3-O-(3′,3′-dimethylsuccinyl)-betulinic acid (DSB) was determined in virus replication assays. Briefly, the virus stocks were first titered in H9 cells by quantitating the levels of p24 (by ELISA) in cultures 8 days after infection with serial 4-fold dilutions of virus. Virus input was then normalized for a second assay in which each virus is cultured for 8 days in the presence of serial 4-fold dilutions of drug. The IC50 for each virus was determined as the dilution of drug that reduced the p24 endpoint level by 50% as compared to the no-drug control. […] In a subsequent series of experiments, the A364V mutation was engineered into the HIV-1 NL4-3 proviral DNA, which was subsequently transfected into HeLa cells. Resulting virus was collected and used to test the activity of DSB in a viral replication assay, as described above.

HIV-1IIIB = assay: Virus production and Gag processing (western blot) in chronically infected H9/HIV-1IIIB cells; format: cell-based
Experimental: FIG. 2. […] Gag proteins were visualized using HIV-Ig (HIV-1) or monkey anti-SIVmac251 serum (HIV-2 and SIV; NIH AIDS Research and Reference Reagent Program).
In order to better define DSB's mechanism of action, a detailed examination was undertaken of the virus produced from HIV-1-infected cell lines treated with DSB. Briefly, H9 cells chronically infected with the HIV-1IIIB isolate were treated with DSB at 1 μg/mL for a period of 48 hrs. Indinavir was used as a control. At the 48 hr time-point, spent media was removed and fresh media containing compound was added. At 24, 48 and 72 hrs post fresh compound addition, both cells and supernatant were recovered for analysis. The level of virus in the culture supernatant was determined and western blots were used to characterize viral protein production in both cell-associated and cell-free virus. […] This defect took the form of an additional band in the western blots corresponding to p25 (FIG. 2). This p25 band results from the incomplete processing of the capsid CA-SP1 precursor. […] As discussed above, mutations at the p25 to p24 cleavage site that prevent processing are associated with defects in viral maturation and infectivity (Wiegers K. et al., J. Virol. 72:2846-54 (1998)).

HIV-1 protease [5] = target: T1, HIV-1 protease; assay: Cell-free fluorometric protease assay, synthetic peptide substrate; format: biochemical; parameters: DSB had no effect on HIV-1 protease function using a cell-free fluorometric assay; settings: concentrations up to 50 μg/mL
Experimental: It was previously determined that DSB had no effect on HIV-1 protease function using a cell-free fluorometric assay that characterized enzyme activity by following the cleavage of a synthetic peptide substrate. […] As a result of the observation that DSB blocks virus replication at a late step, studies were also performed using a recombinant form of the Gag protein, which is a more relevant system than the synthetic peptide substrate used in the initial assays.

## C=C(C)[C@@H]1CC[C@]2(C(=O)O)CC[C@]3(C)[C@H](CC[C@@H]4[C@@]5(C)CC[C@H](OC(=O)CC(C)(C)C(=O)O)C(C)(C)[C@@H]5CC[C@]43C)[C@@H]12 [DSB, 3-O-(3′,3′-dimethylsuccinyl)betulinic acid]
HIV-1 protease [1]
  effect on protease-mediated Gag protein processing: did not disrupt protease-mediated Gag protein processing; also recorded: does not disrupt the activity of HIV-1 protease
[2]; point deletions starting with residue T372 and extending away from the cleavage site, 1 μg/ml
  effect on CA-SP1 processing: fully sensitive to DSB-induced disruption of CA-SP1 processing
[2]; single residue deletion at any of positions E365 through V370, 1 μg/ml
  effect on CA-SP1 processing: significantly reduces the affect of DSB on CA-SP1 processing
[3]
  CA-SP1 product in virus (Western blot): did not contain the CA-SP1 product
[4]; NL4-3 with engineered A364V mutation (DSB-resistant virus)
  IC50: 100 nM
[4]; two independently derived DSB-selected virus stocks
  IC50: > 2000 nM
[4]; virus cultured in parallel in the absence of drug
  IC50: 20 nM
[4]; wild-type NL4-3
  IC50: 10 nM
HIV-1IIIB; 1 μg/mL, cell-associated and cell-free virus
  Gag processing (p25 band in western blot): defect in Gag processing
HIV-1IIIB; 1 μg/mL, chronically infected H9 cells
  amount of virus produced: did not cause a significant reduction in the amount of virus produced
HIV-1IIIB; a variety of experimental systems
  effect on virus release: does not have a significant effect on virus release
HIV-1 protease [5]
  effect on HIV-1 protease function: no effect on protease function

— patent US7537765B2, “Inhibition of HIV-1 replication by disruption of the processing of the viral capsid-spacer peptide 1 protein” (priority 2003, dated 2009)
